The text below walks through data of US20250090603A1, “COMPOSITIONS CONTAINING BACILLAENE PRODUCING BACTERIA OR PREPARATIONS THEREOF” (Evonik Operations GmbH, priority 2019, published 2025).

For experiment [1], the system named is S. enterica subsp. enterica enteritidis DSM 14221. It counts as cell-based, Salmonella enterica.
The subject of experiment [2] is Vibrio parahaemolyticus DSM 10027. It counts as cell-based. The settings on record: concluded from experiments with knock-out mutants.

On to `C/C(=C/C=C/C=C/C(C)C(=O)O)NC(=O)CC(O)\C(C)=C/C=C\C=C(C)\C=C\C=C/C=C/CNC(=O)C(O)CC(C)C` (centres unmarked) [bacillaene], for which the “inhibition of growth of Salmonella enterica (in words)” value in experiment [1] is listed as “effectively inhibit the growth”. For the same compound, the “inhibition of growth of Vibrio parahaemolyticus (in words)” value in experiment [2] was “effectively inhibit the growth”.
